Source: patent US20260000685A1, “PHARMACEUTICAL COMPOSITION FOR PREVENTING OR TREATING DEGENERATIVE BRAIN DISEASES, COMPRISING CANNABINOIDS AS ACTIVE INGREDIENT, AND USES THEREOF” (NEOCANNBIO CO., LTD., priority 2022, published 2026)

Legend:
[1] = tested on: phosphorylated tau (p-Tau); experiment: Western blotting of Tau/p-Tau in Aβ1-42-treated primary neuronal cells; assay type: cell-based, ICR mice; settings: with Aβ1-42 (5 μM), 24 hours; compared to Aβ1-42 alone; FIG. 7
Method: (§1) To conduct Western blotting, tissues were homogenized in radioimmunoprecipitation assay buffer (Cell Signaling) to acquire tissue lysates. Tissue protein concentrations were determined using the Bio-Rad protein assay (Bio-Rad, Hercules, CA, USA), and Western blot analysis was conducted using 80-120 μg of protein. Next, the Western blotting samples prepared using the proteins were separated using 12% SDS-PAGE and transferred to a polyvinylidene fluoride membrane (PVDF) (Merck Millipore, Burlington, MA, USA; 0.4 μm). The PVDF was blocked with tris-buffered saline including 5% bovine serum albumin and Tween-20, and incubated with primary antibodies overnight at 4° C. After primary antibody incubation, the samples were incubated with HRP-conjugated secondary antibody (Sigma; 1:5000) for 1 hour at room temperature, and immunodetection was conducted using an enhanced chemiluminescence detection kit (GE Healthcare, Chicago, IL, USA).
Specifically, primary neuronal cells derived from ICR mice were cultured for 6 days, and then treated with CBDA, THCA, THC, or CBN compounds while treating with Aβ1-42 (5 μM), and treated together for 24 hours. Next, to confirm the expression levels of Tau and phosphorylated Tau (p-Tau) in the cells, Western blotting was conducted using the method disclosed in Example 4 above.

amyloid beta (Aβ) = experiment: Western blot of Aβ in hippocampal tissues of animal model; assay type: in vivo, ICR mice; settings: day 19; compared to Aβ1-42 treated group; FIG. 15
Method: as §1
(§2) Specifically, hippocampal tissues were acquired on day 19 from the animal models created in Example 7 above (PBS treated group, Aβ1-42 treated group, CBDA treated group, and THCA treated group), and Western blot analysis was conducted on the hippocampal tissues to evaluate the expression levels of APP (Amyloid Precursor Protein), polymeric Aβ, and oligomeric Aβ.

[2] = tested on: Alzheimer's animal model (Aβ1-42 treated mice); experiment: Morris water maze test in Aβ1-42 Alzheimer's animal model; assay type: in vivo, ICR mice; settings: compared to mice treated only with Aβ1-42; for learning ability (finding submerged platform during training session): CBDA 6.25 μM or THCA 12.5 μM, 3 μL/mouse into hippocampus, FIGS. 11 and 12; for time spent in the target quadrant (probe test) / time spent in the platform area (probe test) / number of times crossed the platform area (probe test): probe test on the 5th day; for time spent in the target quadrant (probe test): FIG. 13A; for time spent in the platform area (probe test): FIG. 13B; for number of times crossed the platform area (probe test): FIG. 13C
Method: Female ICR mice (8 weeks old) used in the experiment were purchased from Coretech (Pyeongtaek, Korea). Mice were housed in the animal care facility of the Korea Institute of Science and Technology (KIST) (temperature 22±2° C., humidity 40-60%, 12-hour light/dark cycle). Mice were housed in an environment with free access to food and water. All animal experiments were conducted in accordance with the protocol approval of the Animal Ethics Committee of our institution.
Next, to create an animal model, mice were randomly selected and divided into four groups as follows: PBS treated group (PBS+PBS), Aβ1-42 treated group (Aβ1-42 +PBS) (Alzheimer's animal model), CBDA treated group (Δβ1-42+CBDA (6.25 µM, 3 μL/mouse)), and THCA treated group (Δβ1-42+THCA (12.5 μM, 3 μL/mouse)).
After anesthetizing the isolated mice by intraperitoneal (i.p.) injection of avertin (250 mg/kg), the mice were fixed in a stereotaxic apparatus, and CBDA, THCA, Aβ1-42, or PBS (3 μl/15 min/mouse) were gradually delivered to the hippocampus using a Hamilton syringe (coordinates of bregma: mediolateral (ML)=1.30 mm, anteroposterior (AP)=−2.00 mm, dorsoventral=−2.20 mm).
Specifically, a circular tank (diameter 90 cm, height 50 cm, water temperature 22 ±2° C.) was used for the test, and the tank consisted of four quadrants filled with water. An escape platform (diameter 6 cm, height 29 cm) was submerged 1 cm below the water surface in the center of one of the four quadrants. Experimental mice were trained for 4 days to learn and memorize visual cues placed outside the tank indicating the platform location. The swimming paths of the experimental mice were recorded with a camera connected to a video recorder and path tracking software (EthoVision; Noldus Information Technology, Wageningen, The Netherlands). Four tests were conducted daily during the 4-day training period. During each trial, the experimental mice were allowed 60 seconds to find the hidden platform and an additional 30 seconds to remain on the platform. […] The average time it took each experimental mouse to find the platform (average escape latency) was recorded. Probe tests were conducted 4 days later in the same manner without the platform. Each experimental mouse was allowed to move freely for 60 seconds, which was recorded. Videos were analyzed using tracking software (EthoVision; Noldus Information Technology, Wageningen, The Netherlands) to calculate the time spent in the target quadrant area and the number of crossings in the platform area.

[3] = tested on: p-CREB (CAMP Response Element-Binding Protein); experiment: Western blot of p-CREB in hippocampal tissues of animal model; assay type: in vivo, ICR mice; settings: day 19; compared to Aβ1-42 treated group; FIG. 17
Method: as §1
as §2, with “BDNF, p-CREB,” for “APP (Amyloid Precursor Protein), polymeric Aβ,”, “p-TrKB.” for “oligomeric Aβ.”

[4] = tested on: phosphorylated tau (p-Tau); experiment: Western blot of Tau/p-Tau in hippocampal tissues of animal model; assay type: in vivo, ICR mice; settings: day 19; compared to Aβ1-42 treated group; FIG. 16
Method: as §1
as §2, with “Tau” for “APP (Amyloid Precursor Protein), polymeric Aβ,”, “phosphorylated Tau (p-Tau).” for “oligomeric Aβ.”

Compound	expression level of p-Tau [1]	phosphorylation level of p-Tau [1]	expression level of Aβ in hippocampal tissues (amyloid beta (Aβ))	learning ability (finding submerged platform during training session) [2]	time spent in the target quadrant (probe test) [2]	time spent in the platform area (probe test) [2]	number of times crossed the platform area (probe test) [2]	expression level of p-CREB in hippocampal tissues [3]	expression level of p-Tau in hippocampal tissues [4]	phosphorylation level of p-Tau in hippocampal tissues [4]
CCCCCc1cc2c(c(O)c1C(=O)O)[C@@H]1C=C(C)CC[C@H]1C(C)(C)O2 [THCA, (6aR, 10aR)-1-Hydroxy-6,6,9-trimethyl-3-pentyl-6a,7,8,10a-tetrahydro-6H-benzo[c]chromene-2-carboxylic acid]	significantly reduced	significantly reduced	significantly reduced	significantly enhanced	spent more time	spent more time	increased	significantly increased	significantly reduced	significantly reduced
C=C(C)[C@@H]1CCC(C)=C[C@H]1c1c(O)cc(CCCCC)c(C(=O)O)c1O [CBDA]	significantly reduced	significantly reduced	significantly reduced	significantly enhanced	spent more time	spent more time	increased	significantly increased	significantly reduced	significantly reduced
